The target in experiment [1] is T1, FSH receptor (Homo sapiens, UniProt P23945).
T1 sequence (P23945 18-695): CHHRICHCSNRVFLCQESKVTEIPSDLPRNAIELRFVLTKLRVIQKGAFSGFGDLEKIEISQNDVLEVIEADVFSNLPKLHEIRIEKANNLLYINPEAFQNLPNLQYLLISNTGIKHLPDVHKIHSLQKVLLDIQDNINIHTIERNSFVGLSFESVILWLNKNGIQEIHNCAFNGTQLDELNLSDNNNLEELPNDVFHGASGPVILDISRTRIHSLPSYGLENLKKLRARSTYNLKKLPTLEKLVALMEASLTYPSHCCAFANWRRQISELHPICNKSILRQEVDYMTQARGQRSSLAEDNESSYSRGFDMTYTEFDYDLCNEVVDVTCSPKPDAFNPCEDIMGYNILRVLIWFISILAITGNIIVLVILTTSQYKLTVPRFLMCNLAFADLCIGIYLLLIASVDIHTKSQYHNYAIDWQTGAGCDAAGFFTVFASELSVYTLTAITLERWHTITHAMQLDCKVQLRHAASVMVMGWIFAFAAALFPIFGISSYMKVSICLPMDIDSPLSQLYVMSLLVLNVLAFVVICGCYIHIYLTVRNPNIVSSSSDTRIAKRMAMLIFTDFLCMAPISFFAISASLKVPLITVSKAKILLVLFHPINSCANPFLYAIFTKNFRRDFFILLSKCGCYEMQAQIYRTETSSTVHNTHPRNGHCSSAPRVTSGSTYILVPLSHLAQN
The experiment in a line: In Vitro Bio-test Procedure of Agonists and Antagonists to the FSH Receptor (cAMP accumulation in CHO-3D2 cells). Also on record: expressed in transfected cells; host or cells: CHO-3D2 cells. Type of experiment: cell-based. As for the experimental part: In Vitro Bio-test Procedure of Agonists and Antagonists to the FSH Receptor
The compounds were subsequently diluted in sterile procedure medium (Optimem (Gibco/BRL, Grand Island, N.Y.)/0.1% BSA) prior to use in the bio-procedure.
Preparation of CHO-3D2 Cells; CHO-3D2 cells were plated into 96-well Nunc tissue culture plates at a density of 30,000 cells/well in DMEM/F12 medium (Gibco/BRL, Grand Island, N.Y.) supplemented with 5% Fetal Bovine Serum (Hyclone, Fetal Clone II), 2 mM L-glutamine and penicillin/streptomycin (100 U/mL). Cells were plated one day prior to performing the bio-procedure.
Procedure: On the day of procedure, the wells were washed two times with 100 ul/well of pre-warmed (37 deg C.) procedure medium. After aspirating the second wash, an additional 100 ul of procedure medium was added to each well and the cells pre-incubated for 30-45 minutes at 37 deg C. In a humidified incubator with 5%CO2/95% air. The cells were then challenged with varying dilutions of the test substance(s) in a 50 ul total incubation volume in procedure medium for 30 minutes at 37 deg C. in the humidified incubator. The challenge was terminated by the addition of 50 ul of 0.2 N HCl to each well. CAMP accumulation in the medium was measured by radioimmunoassay.
Test Groups: In the 96-well format, the plate is organized into 12 columns each containing 8 rows of wells. The plate was split in half to test a single compound in both agonist and antagonist mode on the same plate.
For agonist mode, compounds were tested using 5 different concentrations in a dose-response paradigm using one column as a control (challenge medium alone) in agonist mode.
The 96-well format allowed for the capability to test 4 columns of compound, using one of the remaining columns for negative control (challenge medium alone) and the other remaining column for ampositive control (ED20 of FSH alone).
The doses chosen to test each compound were extrapolated from the initial screening process (receptor binding data). Along with the test compounds, FSH was run in agonist mode using doses ranging from 0.1 ng/mL-1000 ng/mL as a postive control. Cytotoxicity of the compounds were screened by treating cells with the highest concentration of each compound used in the cAMP procedure for 30 minutes followed by washing of the cells 2 times with 100 ul PBS. The cells were then incubated for 5 min at 37 deg C. in the presence of 50 ug/mL Fluorescein diacetate and 20 ug/mL Propidium iodide in 100 ul PBS. The cells were washed two times with 100 ul PBS followed by examination of the cells under a fluorescence microscope using a 490 nm filter. Viable cells stained green throughout, while dead cells had red fluorescent nuclei.
Analysis of Results: cAMP accumulation was expressed as fmol/mL. […] Data were analyzed statistically by analysis of variance and significant differences between treatments and control determined by Dunnett's test. In antagonist mode, a Duncan's test was used.
Reference Compounds: Test compounds were compared to the effect of purified or recombinant human FSH.
Background: Changes in cAMP serve as a functional read-out for many G protein-coupled receptors.

Experiment [2] has as its target T1, FSH receptor. The experiment can be described thus: FSH Receptor Radioligand Membrane Binding Standard Pharmacological Test Procedure. Set-up: expressed in transfected cells. To be noted: [125I]FSH binding to membranes of CHO cells stably transfected with the human FSH receptor. Here is the method: FSH Receptor Radioligand Membrane Binding Standard Pharmacological Test Procedure
Membrane Source: Chinese hamster ovarian cells stably transfected with the human FSH receptor were cultured (Ultra CHO medium containing 1% fetal bovine serum and 200 μg/mL G418) in and harvested. Cells were collected by centrifugation and resulting cell pellets were frozen and stored at −70° C.
Membrane Receptor Preparation: Frozen cell pellets were weighed and resuspended in binding buffer to a final concentration of 30 mg wet weight/mL. Cell suspension for each pellet was homogenized using a Tempest homogenizer (setting=1; 5 strokes; VirTis, Gardiner, N.Y.). Cell homogenates were pooled and 35 mL aliquots were transferred to 50-mL polypropylene copolymer centrifuge tubes (Nalgene cat. #3110-0500). Tubes were spun at 12,000 rpm (SS34 rotor) for 12 min at 4° C. Resulting supernatant fractions were discarded and pellets were stored at −70° C. until use. On the day of the procedure, 35 mL binding buffer was added to each tube (35 mL membrane suspension was sufficient for three 96-well plates). The membrane pellet was dispersed by trituration using a pipet. The resulting suspension wass homogenized using a Tempest homogenizer (3 strokes at setting=1).
Receptor Binding Test procedure: Membrane homogenate (100 μl) was added to each well of a 96-well microtiter plate (Falcon # 3077). All reactions were tested in triplicate. Test compound solutions (50 μl) were added to the designated wells. Total bound counts were determined by adding 50 μl binding buffer containing 4% DMSO to the designated wells. […] Plates were pre-incubated for 15 min at room temperature on shaking platform (setting=3). After preincubation [^125I]FSH (50 μl) was added to each well and plates were incubated for 2 h at room temperature on shaking platform (setting=3). The reaction was terminated by transfer of the membrane preparation to glass fiber filters (Blue Mat #11740; 102×256 mm; Skatron Instruments, Sterling, Va.) that had been pretreated with 1% BSA in wash buffer for at least 30 min, but not longer than 1 h using a 96-well microtiter vacuum harvester (Skatron Instruments). The membrane preparation was washed with 5 cycles of ice-cold wash buffer (200 μl/well/cycle) followed by a pulse wash of 3 cycles (100 μl/well/cycle). The total wash volume per well was 1.3 mL. The filters were dried by a 10 sec aspiration. Disks corresponding to each well of the microtiter plate were punched out of the filter mat into 12×75 mm polypropylene tubes. The radioactivity present on each of the disks was measured using a gamma counter.
An FSH dose response curve (0.001, 0.01, 0.1, 1, 10, and 100 nM) was generated for each binding procedure to monitor procedure to procedrue variability.
FSH Receptor Radioligand Membrane Binding Procedure Buffers and Reagents
Binding buffer is prepared in 11 volumes containing Trizma-HCl, MgCl2, CaCl2 and sodium azide, the pH was adjusted to 7.2 with NaOH, and stored at 4° C. until use. BSA was weighed out on the day of the procedure and added to the amount of buffer required for the procedure (usually 150 mL). The protease inhibitors were prepared as 1 mg/mL stocks (aprotinin, leupeptin, and phosphoramidon were prepared in binding buffer without BSA and protease inhibitors; pepstatin and PMSF were prepared in methanol), stored in 1 mL aliquots at −70° C., and added to the binding buffer on the day of the procedure.
Wash buffer was prepared containing Trizma-HCl, MgCl2 and EDTA, the pH was adjusted to 7.2 with NaOH, and stored at 4° C.
Filter Soak Buffer (pH 7.2)
BSA was weighed out on the day of the procedure and added to 300 mL of wash buffer. The filter soak buffer was used for two procedures before being discarded.
A portion of the stock solution was diluted in binding buffer to a concentration of 200 pM.
FSH Solution for Determining Non-specific Binding: Purified human FSH was prepared as a 100 μM solution in binding buffer without protease inhibitors. […]

Here are results for eleven compounds from patent US6355633B1, “Aryl sulfonic acids and derivatives as FSH antagonists” (American Home Products Corporation, priority 1999, dated 2002).

Molecules are shown by their SMILES.

The IC50 is the midpoint of a concentration-inhibition curve. A higher IC50 goes with a need for much substance. For the compound `COc1ccc(C(=O)Nc2ccc(/C=C/c3ccc(NC(=O)c4ccc(OC)c(S(=O)(=O)NCCN5CCOCC5)c4)cc3S(=O)(=O)O)c(S(=O)(=O)O)c2)cc1S(=O)(=O)NCCN1CCOCC1` [Example 30n], the IC50 on FSH receptor [1] came to 5.5 µM; at FSH receptor [2], 1.8 µM.

As to `COCCN(CCOC)S(=O)(=O)c1cc(C(=O)Nc2ccc(/C=C/c3ccc(NC(=O)c4ccc(OC)c(S(=O)(=O)N(CCOC)CCOC)c4)cc3S(=O)(=O)O)c(S(=O)(=O)O)c2)ccc1OC` [Example 30o, 2,2′-[(E)-1,2-Ethenediyl]bis[5-[[3-[[bis(2-methoxyethyl)amino]sulfonyl]-4-methoxybenzoyl]amino]benzenesulfonic Acid]], the IC50 on FSH receptor [1] was 6.2 µM; on FSH receptor [2], 2.4 µM.

Regarding `COc1ccc(C(=O)Nc2ccc(CCc3ccc(NC(=O)c4ccc(OC)c(S(=O)(=O)N5CCOCC5)c4)cc3S(=O)(=O)O)c(S(=O)(=O)O)c2)cc1S(=O)(=O)N1CCOCC1` [Example 30p, 2,2′-(1,2-Ethanediyl)bis[5-[[4-methoxy-3-(4-morpholinylsulfonyl)benzoyl]amino]benzenesulfonic Acid]], the IC50 at FSH receptor [1] worked out at 11 µM; on FSH receptor [2] it was 2.5 µM.

On to `C=CCS(=O)(=O)c1ccc(C(=O)Nc2ccc(/C=C/c3ccc(NC(=O)c4ccc(S(=O)(=O)CC=C)cc4)cc3S(=O)(=O)O)c(S(=O)(=O)O)c2)cc1` [Example 32a], for which the IC50 at FSH receptor [1] came out at 2.3 µM; on FSH receptor [2], 3.5 µM.

For the compound `CS(=O)(=O)c1ccc(C(=O)Nc2ccc(/C=C/c3ccc(NC(=O)c4ccc(S(C)(=O)=O)s4)cc3S(=O)(=O)O)c(S(=O)(=O)O)c2)s1` [Example 32b, 2,2′-[(E)-1,2-Ethenediyl]bis[5-[[[5-(methylsulfonyl)-2-thienyl]carbonyl]amino]benzenesulfonic Acid]], the IC50 was found to be 2.6 µM on FSH receptor [1] and 3.2 µM on FSH receptor [2].

With `COC(=O)C=CCS(=O)(=O)c1cccc(C(=O)Nc2ccc(C=Cc3ccc(NC(=O)c4cccc(S(=O)(=O)CC=CC(=O)OC)c4)cc3S(=O)(=O)O)c(S(=O)(=O)O)c2)c1` [Example 32e, 4-{3-[4-(2-{4-{3-(3-Methoxycarbonyl-prop-2-ene-1-sulfonyl)-benzoylamino]-2-sulfo-phenyl}-vinyl)-3-sulfo-phenylcarbomoyl]-benzenesulfonyl}-but-2-enoic Acid, Methyl Ester], the IC50 at FSH receptor [1] (antagonist mode, inhibition of hFSH-induced cAMP accumulation (ED20 of FSH, […]), CHO-3D2 cells) is 9 µM; on FSH receptor [2], 4.9 µM.

As to `CCSc1ccc(C(=O)Nc2ccc(/C=C/c3ccc(NC(=O)c4ccc(SCC)c(S(=O)(=O)N5CCOCC5)c4)cc3S(=O)(=O)O)c(S(=O)(=O)O)c2)cc1S(=O)(=O)N1CCOCC1` [Example 32i, 2,2′-[(E)-1,2-Ethenediyl]bis[5-[[4-(ethylthio)-3-(4-morpholinylsulfonyl)benzoyl]amino]benzenesulfonic Acid]], the IC50 was found to be 4.9 µM at FSH receptor [1] and 3.7 µM on FSH receptor [2].

With `COCCOCCSc1ccc(C(=O)Nc2ccc(/C=C/c3ccc(NC(=O)c4ccc(SCCOCCOC)c(S(=O)(=O)N5CCOCC5)c4)cc3S(=O)(=O)O)c(S(=O)(=O)O)c2)cc1S(=O)(=O)N1CCOCC1` [Example 32o], the figures for the IC50 at FSH receptor [1] and at FSH receptor [2] were 1 µM and 1.5 µM, respectively.

`CCN(CC)S(=O)(=O)c1cc(C(=O)Nc2ccc(/C=C/c3ccc(NC(=O)c4ccc(OC)c(S(=O)(=O)N(CC)CC)c4)cc3S(=O)(=O)O)c(S(=O)(=O)O)c2)ccc1OC` [Example 33c, 2,2′-[(E)-1,2-Ethenediyl]bis[5-[[3-[(diethylamino)sulfonyl]-4-methoxybenzoyl]amino]benzenesulfonic Acid]]: the results for the IC50 at FSH receptor [1] and at FSH receptor [2] were 4.5 µM and 6.2 µM, respectively.

Consider `COc1ccc(C(=O)Nc2ccc(/C=C/c3ccc(NC(=O)c4ccc(OC)c(S(=O)(=O)N5CCCCCC5)c4)cc3S(=O)(=O)O)c(S(=O)(=O)O)c2)cc1S(=O)(=O)N1CCCCCC1` [Example 33f], for which the IC50 stood at 11 µM at FSH receptor [1] and 16 µM at FSH receptor [2].

For `COc1ccc(C(=O)Nc2ccc(Sc3ccc(NC(=O)c4ccc(OC)c(S(=O)(=O)N5CCOCC5)c4)cc3S(=O)(=O)O)c(S(=O)(=O)O)c2)cc1S(=O)(=O)N1CCOCC1` [Example 33h, 2,2′-Thiobis[5-[[4-methoxy-3-(4-morpholinylsulfonyl)benzoyl]amino]benzenesulfonic Acid]], the IC50 at FSH receptor [1] was determined as 67 µM; at FSH receptor [2], 23 µM.
